US5028613A, “Novel pyrroloquinoline alkaloids and methods of use” (Repligen Corporation, priority 1990, dated 1991)
≈ marks a conversion by molar mass, not a printed value. Where two headings read alike, the source gives them in different places.

Columns and labels:
HT29 cell line = assay: HT29 cell assay (analogous MTT procedure); assay type: cell-based; settings: Homo sapiens, HT-29; procedure analogous to P388
Description: (§1) To assess the antiproliferative effects of agents against P388 cells, 200 μl cultures (96-well tissue culture plates, Nunc, Denmark) were established at 1×10^5 cells/ml in drug-free medium containing agents at various concentrations. After 48 hour exposures, P388 cells were enumerated using 3-[4,5-dimethylthiazol-2-yl]-2,5-diphenyltetrazolium bromide (MTT) as described below.
(§2) To quantitate the effects of agents on cell proliferation, 75 μl warm growth medium containing 5 mg/ml MTT was added to each well. Cultures were returned to the incubator and left undisturbed for 90 minutes. To spectrophotometrically quantitate formation of reduced formazan, plates were centrifuges (900 g, 5 minutes), culture fluids were removed by aspiration, and 200 μl of acidified isopropanol (2 ml concentrated HCl/L isopropanol) added per well. The absorbance of the resulting solutions were measured at 570 nm with a plate reader (MR700 Microplate Reader, Dynatech Laboratories, Chantilly, Va.). […] A linear relationship between P388 cell number and formazan production was found over the range of cell densities observed in this study.
(§3) Analogous procedures were followed for the A549 and HT29 cell lines.

A549 cell line = assay: A549 cell assay (analogous MTT procedure); assay type: cell-based; settings: Homo sapiens, procedure analogous to P388
Description: as §1, §2, §3

[1] = tested on: P388 murine leukemia cells; assay: P388 mouse leukemia cell antiproliferative assay (MTT); assay type: cell-based; settings: 48 hour exposure
Description: P388 murine leukemia cells obtained from Dr. J. Mayo, National Cancer Institute, Bethesda, Md., were maintained in Roswell Park Memorial Institute medium 1640 (RPMI-1640) supplemented with 10% horse serum and cultured in plastic tissue culture flasks and kept in an incubator at 37° C. in humidified air containing 5% CO2. Antibiotic-free stock cultures of P388 cells were subcultured to 10^5 cells/ml by dilutions in fresh growth medium at 2 to 5 day intervals.
as §1, §2

B. subtilis = B. subtilis growth inhibition (disc diffusion assay); assay type: cell-based, Bacillus subtilis (ATCC strain 6633); settings: result in words
Description: All media were autoclaved at 121° C. for 15 minutes. Candida albicans: C. albicans (ATCC strain 44506) was grown on Sabouraud dextrose agar to produce single colonies, one of which was used to inoculate Sabouraud dextrose broth. The broth was incubated at 37° C. with shaking at 200 rpm for 18 hours. The resultant culture was brought to 10% (v/v) glycerol, frozen at -80° C., and used as the inoculum for the anti-Candida assay. Aspergillus nidulans: A. nidulans (ATCC strain 36321) was grown from a spore stock on the surface of a YAG plate (YAG: yeast extract 0.5%; glucose 2%; agar 2%) at 30° C. until the colony sporulated; at this point the colony was green (usually within one week). Spores were harvested by washing with 0.1% (v/v) TRITON™ X-100. Spores were then washed with distilled water before freezing at -80° C. in the presence of 10% (v/v) glycerol. Bacillus subtilis: Standard spore stocks (ATCC strain 6633) were purchased from Difco (#0453-36-0). Escherichia coli: The BMR strain was used. […]
Paper discs (6.35 mm) were impregnated with the test substance and allowed to dry. […] Plates were incubated overnight (C. albicans, B. subtilis, E. coli, and P. aeruginosa 37° C.; and A. nidulans 30° C.) after which time the zones of growth inhibition could be read. These are expressed as the diameter of the zone in millimeters. […]

C. albicans = C. albicans MIC (microtiter broth dilution); assay type: cell-based, Candida albicans (ATCC strain 44506); settings: Candida albicans, read-out: C. albicans MIC
Description: All media were autoclaved at 121° C. for 15 minutes. Candida albicans: C. albicans (ATCC strain 44506) was grown on Sabouraud dextrose agar to produce single colonies, one of which was used to inoculate Sabouraud dextrose broth. The broth was incubated at 37° C. with shaking at 200 rpm for 18 hours. The resultant culture was brought to 10% (v/v) glycerol, frozen at -80° C., and used as the inoculum for the anti-Candida assay. Aspergillus nidulans: A. nidulans (ATCC strain 36321) was grown from a spore stock on the surface of a YAG plate (YAG: yeast extract 0.5%; glucose 2%; agar 2%) at 30° C. until the colony sporulated; at this point the colony was green (usually within one week). Spores were harvested by washing with 0.1% (v/v) TRITON™ X-100. Spores were then washed with distilled water before freezing at -80° C. in the presence of 10% (v/v) glycerol. Bacillus subtilis: Standard spore stocks (ATCC strain 6633) were purchased from Difco (#0453-36-0). Escherichia coli: The BMR strain was used. This was grown overnight with shaking at 37° C. in nutrient broth and frozen in 1 mL aliquots in the presence of 10% (v/v) glycerol at -80° C. Pseudomonas aeruginosa: (ATCC strain 27853) Grown and stored as described for E. coli.
Two-fold dilutions of the drug/extract were prepared in 50 μL volumes of a suitable solvent using 96-well microtiter plates. A 25% mixture of MeOH in water was generally used; however, EtOH, 5% EtOAc in EtOH, DMSO, or other compatible solvents could be substituted if necessary. In a separate 96-well plate, 35 μL volumes of either Sabouraud dextrose broth or RPMI-1640 were placed in each well. The drug/extract (5 μL) was then transferred to the broth using a 12-place pipettor. An inoculum of C. albicans in the appropriate medium was added to give a cell density of 1000 cells/mL and a total volume of 50 μL. […] SDB plates were incubated at 37° C. overnight, RPMI-1640 plates were incubated at 37° C. in a humidified atmosphere of 10% CO2.

[2] = lowest concentration completely inhibiting growth

| IC50 (HT29 cell line) [µg/mL] | IC50 (A549 cell line) [µg/mL] | IC50 [1] [µg/mL] | MIC (C. albicans; [2]) [µg/mL] | Structure (SMILES) | inhibition of the growth of B. subtilis (B. subtilis) | MIC (C. albicans) [µg/mL] |
| --- | --- | --- | --- | --- | --- | --- |
| 0.44 (≈ 1.56 µM) | 0.07 (≈ 0.248 µM) | 0.42 (≈ 1.49 µM) | 3.1 (≈ 11 µM) | CSc1c2c3c(n1C)C(=O)C(N)=C(Cl)C3=NCC2 [Isobatzelline A] | inhibit the growth of B. subtilis |  |
| 2.5 (≈ 10.1 µM) | 2.8 (≈ 11.3 µM) | 2.6 (≈ 10.5 µM) | 25 (≈ 101 µM) | CSc1c2c3c(n1C)C(=O)C(N)=CC3=NCC2 [Isobatzelline B] |  |  |
| > 20 | > 20 | 20 (≈ 71.5 µM) | 25 (≈ 89.4 µM) | CSc1c2ccnc3c2c(n1C)C(=O)C(N)=C3Cl [Isobatzelline D] |  |  |

| Structure (SMILES) | IC50 (HT29 cell line) [µg/mL] | IC50 (A549 cell line) [µg/mL] | IC50 [1] [µg/mL] | MIC (C. albicans; [2]) [µg/mL] | inhibition of the growth of B. subtilis (B. subtilis) | MIC (C. albicans) [µg/mL] |
| --- | --- | --- | --- | --- | --- | --- |
| Cn1cc2c3c1C(=O)C(N)=C(Cl)C3=NCC2 [Isobatzelline C] | 10 (≈ 42.4 µM) | > 20 | 12.6 (≈ 53.5 µM) |  |  | 50 (≈ 212 µM) |
